Reference: the OligoGym collection
Values joined by “and” are separate entries in the source; they are usually repeats but may differ in a detail not shown here. Equal entries are not always repeated. HELM strings list units from the 5' end as sugar, base in round brackets, then linkage (d deoxyribose, r ribose, m 2'-O-methyl, p phosphodiester). Strings are as the collection lists them, not checked against the first reports. ss, as = sense and antisense strand; [lna] = locked nucleic acid (LNA); [una] = unlocked nucleic acid; [s4r] = 4'-thioribose; [fl2r] = 2'-fluoro

Conditions: siRNA
Note: test system not given here.

Substance	target mRNA knockdown
RNA1{r(C)p.r(G)p.r(U)p.r(A)p.r(C)p.r(G)p.[s4r](C)p.[s4r](G)p.[s4r](G)p.[s4r](A)p.[s4r](A)p.[s4r](U)p.[s4r](A)p.r(C)p.r(U)p.r(U)p.r(C)p.r(G)p.r(A)p.r(T)p.r(T)}|RNA2{r(U)p.r(C)p.r(G)p.r(A)p.r(A)p.r(G)p.r(U)p.r(A)p.r(U)p.r(U)p.r(C)p.r(C)p.r(G)p.r(C)p.r(G)p.r(U)p.r(A)p.r(C)p.r(G)p.r(T)p.r(T)}$$$RNA1{StrandType:ss}|RNA2{StrandType:as}$	87.4%
RNA1{r(U)p.r(U)p.m(U)p.r(G)p.r(A)p.r(U)p.m(C)p.r(A)p.r(G)p.r(C)p.r(G)p.r(G)p.r(A)p.r(G)p.r(A)p.r(C)p.r(U)p.r(C)p.r(G)p.r(T)p.r(T)}|RNA2{r(C)p.r(G)p.r(A)p.r(G)p.r(U)p.r(C)p.r(U)p.r(C)p.r(C)p.r(G)p.r(C)p.m(U)p.r(G)p.r(A)p.r(U)p.m(C)p.r(A)p.r(A)p.r(A)p.r(T)p.r(T)}$$$RNA1{StrandType:ss}|RNA2{StrandType:as}$	89%
RNA1{r(A)p.r(U)p.r(C)p.r(G)p.r(C)p.[fl2r](U)p.r(G)p.r(C)p.[fl2r](U)p.r(C)p.r(C)p.[fl2r](U)p.r(C)p.r(C)p.r(U)p.r(C)p.r(C)p.r(U)p.r(C)p.r(T)p.r(T)}|RNA2{r(G)p.r(A)p.r(G)p.r(G)p.r(A)p.r(G)p.r(G)p.r(A)p.r(G)p.r(G)p.r(A)p.r(G)p.[fl2r](C)p.r(A)p.r(G)p.r(C)p.r(G)p.r(A)p.r(U)p.r(T)p.r(T)}$$$RNA1{StrandType:ss}|RNA2{StrandType:as}$	69%
RNA1{r(C)p.r(G)p.r(A)p.r(C)p.r(G)p.r(A)p.r(U)p.r(U)p.r(C)p.r(U)p.r(U)p.r(C)p.[fl2r](U)p.r(A)p.r(C)p.r(U)p.r(C)p.r(A)p.r(A)p.r(T)p.r(T)}|RNA2{r(U)p.r(U)p.r(G)p.r(A)p.r(G)p.[fl2r](U)p.r(A)p.r(G)p.r(A)p.r(A)p.r(G)p.r(A)p.r(A)p.r(U)p.r(C)p.r(G)p.r(U)p.r(C)p.r(G)p.r(T)p.r(T)}$$$RNA1{StrandType:ss}|RNA2{StrandType:as}$	67%
RNA1{m(A)p.m(A)p.r(U)p.m(A)p.m(A)p.m(G)p.r(C)p.m(A)p.m(G)p.r(C)p.r(U)p.r(C)p.m(G)p.r(C)p.m(G)p.r(C)p.r(U)p.r(C)p.r(C)p.r(T)p.r(T)}|RNA2{r(G)p.r(G)p.r(A)p.r(G)p.r(C)p.r(G)p.r(C)p.r(G)p.r(A)p.r(G)p.r(C)p.r(U)p.r(G)p.r(C)p.r(U)p.r(U)p.r(A)p.r(U)p.r(U)p.r(T)p.r(T)}$$$RNA1{StrandType:ss}|RNA2{StrandType:as}$	64%
RNA1{r(G)p.r(A)p.r(U)p.r(U)p.r(C)p.r(C)p.r(A)p.r(A)p.r(A)p.r(C)p.r(C)p.r(C)p.r(C)p.r(A)p.r(C)p.m(U)p.r(A)p.r(U)p.r(C)p.r(T)p.r(T)}|RNA2{r(G)p.r(A)p.r(U)p.m(A)p.r(G)p.r(U)p.r(G)p.r(G)p.r(G)p.r(G)p.r(U)p.r(U)p.r(U)p.r(G)p.r(G)p.r(A)p.r(A)p.r(U)p.r(C)p.r(T)p.r(T)}$$$RNA1{StrandType:ss}|RNA2{StrandType:as}$	69%
RNA1{r(C)p.r(U)p.r(U)p.r(A)p.r(C)p.r(G)p.r(C)p.r(U)p.r(G)p.r(A)p.r(G)p.r(U)p.r(A)p.r(C)p.r(U)p.r(U)p.r(C)p.r(G)p.r(A)p.r(T)p.r(T)}|RNA2{r(T)p.r(C)p.r(G)p.r(A)p.r(A)p.[lna](G)p.r(U)p.r(A)p.r(C)p.r(U)p.r(C)p.r(A)p.r(G)p.r(C)p.r(G)p.r(U)p.r(A)p.r(A)p.r(G)p.[lna](T)p.[lna](T)}$$$RNA1{StrandType:ss}|RNA2{StrandType:as}$	85%
RNA1{m(C)p.r(G)p.m(A)p.r(G)p.m(U)p.r(G)p.m(U)p.r(C)p.m(U)p.r(A)p.m(A)p.r(C)p.m(G)p.r(G)p.m(G)p.r(A)p.m(G)p.r(C)p.m(C)p.r(T)p.r(T)}|RNA2{r(G)p.r(G)p.r(C)p.r(U)p.r(C)p.r(C)p.r(C)p.r(G)p.r(U)p.r(U)p.r(A)p.r(G)p.r(A)p.r(C)p.r(A)p.r(C)p.r(U)p.r(C)p.r(G)p.r(T)p.r(T)}$$$RNA1{StrandType:ss}|RNA2{StrandType:as}$	25%
RNA1{[lna](T)p.r(G)p.[lna](A)p.r(G)p.[lna](A)p.r(G)p.r(A)p.r(A)p.[lna](A)p.r(G)p.r(C)p.[lna](A)p.r(C)p.[lna](A)p.r(G)p.r(A)p.[lna](A)p.r(A)p.r(A)p.[lna](T)p.[lna](T)}|RNA2{r(U)p.r(G)p.r(A)p.r(G)p.r(A)p.r(G)p.r(A)p.r(A)p.r(A)p.r(G)p.r(C)p.r(A)p.r(C)p.r(A)p.r(G)p.r(A)p.r(A)p.r(A)p.r(A)p.d(T)p.d(T)}$$$RNA1{StrandType:ss}|RNA2{StrandType:as}$	64%
RNA1{[fl2r](A)p.r(U)p.r(C)p.[fl2r](G)p.[fl2r](A)p.r(C)p.r(C)p.r(U)p.[fl2r](G)p.[fl2r](A)p.[fl2r](A)p.[fl2r](G)p.[fl2r](G)p.[fl2r](A)p.[fl2r](G)p.r(U)p.[fl2r](A)p.r(C)p.[fl2r](G)p.r(T)p.r(T)}|RNA2{r(C)p.[fl2r](G)p.r(U)p.[fl2r](A)p.r(C)p.r(U)p.r(C)p.r(C)p.r(U)p.r(U)p.r(C)p.[fl2r](A)p.[fl2r](G)p.[fl2r](G)p.r(U)p.r(C)p.[fl2r](G)p.[fl2r](A)p.r(U)p.r(T)p.r(T)}$$$RNA1{StrandType:ss}|RNA2{StrandType:as}$	21%
RNA1{r(U)p.r(U)p.r(U)p.m(G)p.r(A)p.r(U)p.m(C)p.r(A)p.r(G)p.r(C)p.r(G)p.r(G)p.r(A)p.r(G)p.r(A)p.r(C)p.r(U)p.r(C)p.r(G)p.r(T)p.r(T)}|RNA2{r(C)p.r(G)p.r(A)p.r(G)p.r(U)p.r(C)p.r(U)p.r(C)p.r(C)p.r(G)p.r(C)p.r(U)p.r(G)p.r(A)p.r(U)p.r(C)p.r(A)p.r(A)p.r(A)p.r(T)p.r(T)}$$$RNA1{StrandType:ss}|RNA2{StrandType:as}$	82%
RNA1{r(G)p.[fl2r](C)p.r(A)p.r(G)p.[fl2r](C)p.r(A)p.[fl2r](C)p.r(G)p.r(A)p.[fl2r](C)p.[fl2r](U)p.[fl2r](U)p.[fl2r](C)p.[fl2r](U)p.[fl2r](U)p.[fl2r](C)p.r(A)p.r(A)p.r(G)p.r(T)p.r(T)}|RNA2{r(C)p.r(U)p.r(U)p.r(G)p.r(A)p.r(A)p.r(G)p.r(A)p.r(A)p.r(G)p.r(U)p.r(C)p.r(G)p.r(U)p.r(G)p.r(C)p.r(U)p.r(G)p.r(C)p.r(T)p.r(T)}$$$RNA1{StrandType:ss}|RNA2{StrandType:as}$	92%
RNA1{r(A)p.r(A)p.m(C)p.r(A)p.r(G)p.r(U)p.r(C)p.r(C)p.r(U)p.m(U)p.r(A)p.r(G)p.r(C)p.m(U)p.r(A)p.r(C)p.r(G)p.r(C)p.m(U)p.r(T)p.r(T)}|RNA2{r(A)p.r(G)p.r(C)p.r(G)p.m(U)p.r(A)p.r(G)p.r(C)p.m(U)p.r(A)p.r(A)p.r(G)p.r(G)p.r(A)p.r(C)p.m(U)p.r(G)p.r(U)p.r(U)p.r(T)p.r(T)}$$$RNA1{StrandType:ss}|RNA2{StrandType:as}$	85%
RNA1{m(C)p.r(U)p.m(C)p.r(U)p.m(G)p.r(G)p.m(C)p.r(C)p.m(U)p.m(U)p.r(U)p.r(C)p.m(U)p.r(C)p.m(U)p.r(C)p.m(U)p.r(A)p.m(G)p.r(T)p.r(T)}|RNA2{r(C)p.r(U)p.r(A)p.r(G)p.r(A)p.r(G)p.r(A)p.r(G)p.r(A)p.r(A)p.r(A)p.r(G)p.r(G)p.r(C)p.r(C)p.r(A)p.r(G)p.r(A)p.r(G)p.r(T)p.r(T)}$$$RNA1{StrandType:ss}|RNA2{StrandType:as}$	24%
RNA1{r(U)p.r(U)p.r(U)p.[fl2r](C)p.[fl2r](C)p.[fl2r](C)p.[fl2r](C)p.[fl2r](C)p.r(A)p.r(G)p.r(G)p.r(U)p.r(A)p.r(A)p.[fl2r](C)p.r(G)p.r(A)p.r(U)p.r(U)p.r(T)p.r(T)}|RNA2{r(A)p.r(A)p.r(U)p.[fl2r](C)p.r(G)p.r(U)p.r(U)p.[fl2r](A)p.[fl2r](C)p.r(C)p.r(U)p.r(G)p.r(G)p.r(G)p.r(G)p.r(G)p.r(A)p.r(A)p.r(A)p.r(T)p.r(T)}$$$RNA1{StrandType:ss}|RNA2{StrandType:as}$	68%
RNA1{r(C)p.r(U)p.r(U)p.r(A)p.r(C)p.r(G)p.r(C)p.r(U)p.r(C)p.r(U)p.r(G)p.r(U)p.r(A)p.r(C)p.r(U)p.r(U)p.r(C)p.r(G)p.r(A)p.d(T)p.d(T)}|RNA2{r(U)p.r(C)p.r(G)p.r(A)p.r(A)p.r(G)p.r(U)p.r(A)p.r(C)p.r(U)p.r(C)p.r(A)p.r(G)p.r(C)p.r(G)p.r(U)p.r(A)p.r(A)p.r(G)p.d(T)p.d(T)}$$$RNA1{StrandType:ss}|RNA2{StrandType:as}$	92% and 94%
RNA1{r(G)p.r(G)p.r(A)p.m(C)p.m(U)p.r(A)p.m(C)p.m(U)p.r(A)p.r(A)p.m(C)p.m(C)p.m(U)p.m(C)p.m(C)p.r(A)p.r(G)p.m(U)p.m(U)p.r(T)p.r(T)}|RNA2{r(A)p.r(A)p.m(C)p.m(U)p.r(G)p.r(G)p.r(A)p.r(G)p.r(G)p.m(U)p.m(U)p.r(A)p.r(G)p.m(U)p.r(A)p.r(G)p.m(U)p.m(C)p.m(C)p.r(T)p.r(T)}$$$RNA1{StrandType:ss}|RNA2{StrandType:as}$	7%
RNA1{[fl2r](A)p.r(A)p.[fl2r](G)p.r(G)p.[fl2r](A)p.r(C)p.[fl2r](C)p.r(U)p.[fl2r](A)p.r(G)p.[fl2r](A)p.r(G)p.[fl2r](G)p.r(A)p.[fl2r](G)p.r(U)p.[fl2r](C)p.r(A)p.r(C)p.r(T)p.r(T)}|RNA2{r(G)p.r(U)p.r(G)p.r(A)p.r(C)p.r(U)p.r(C)p.r(C)p.r(U)p.r(C)p.r(U)p.r(A)p.r(G)p.r(G)p.r(U)p.r(C)p.r(C)p.r(U)p.r(U)p.r(T)p.r(T)}$$$RNA1{StrandType:ss}|RNA2{StrandType:as}$	31%
RNA1{r(G)p.r(U)p.r(A)p.r(U)p.r(G)p.r(A)p.r(C)p.r(C)p.r(G)p.r(A)p.r(C)p.r(U)p.r(A)p.r(C)p.r(G)p.r(C)p.r(G)p.r(U)p.r(A)p.r(T)p.r(T)}|RNA2{r(U)p.r(U)p.r(C)p.r(A)p.r(G)p.r(U)p.r(G)p.r(U)p.r(G)p.r(A)p.r(U)p.r(G)p.r(A)p.r(C)p.r(A)p.[una](C)p.r(U)p.r(U)p.r(G)p.r(T)p.r(T)}$$$RNA1{StrandType:ss}|RNA2{StrandType:as}$	29%
RNA1{r(G)p.r(C)p.r(A)p.r(G)p.r(C)p.r(A)p.r(C)p.r(G)p.r(A)p.r(C)p.r(U)p.r(U)p.r(C)p.r(U)p.r(U)p.r(C)p.r(A)p.r(A)p.r(G)p.r(U)p.r(U)}|RNA2{r(C)p.m(U)p.r(U)p.r(G)p.r(A)p.r(A)p.r(G)p.r(A)p.r(A)p.r(G)p.r(U)p.r(C)p.r(G)p.r(U)p.r(G)p.r(C)p.r(U)p.r(G)p.r(C)p.r(U)p.r(U)}$$$RNA1{StrandType:ss}|RNA2{StrandType:as}$	71.7%
